Data reported in patent US9220760B2, “Method of modulating the proliferation of medullary thyroid carcinoma cells” (The Administrators of the Tulane Educational Fund, priority 2001, dated 2015).
Read-outs that look alike come from different tables or passages of the source. One block for each compound: values may come before it. Where a SMILES comes first, the peptide text is derived from it. [ ]: non-standard residue; d: D form. Tic = O=C(O)[C@@H]1Cc2ccccc2CN1; Abu = CC[C@H](N)C(=O)O

Assays:
[1] = tested on: human MTC cell line TT; test: [3H]thymidine incorporation (DNA synthesis) in TT cells; type: cell-based; conditions: for Change of [3H]thy incorporation: p<0.05
Method: Cells were incubated in 24-well plates for 48 hours in a culture medium supplemented with SS analogues at various concentrations (10^−9, 10^−8, 10^−7, and 10^−6 M). Control wells were treated with vehicle solution and [^3H]thy incorporation was measured as radioactivity in TCA-precipitated material. Data from six individual experiments evaluated independently in quadruplicate are expressed as the mean±SEM percent [^3H]thy incorporation inhibition versus untreated control cells *P<0.05 and **P<0.01 vs. control.
Control wells were treated with vehicle solution. [^3H]thy incorporation was measured as radioactivity in TCA-precipitated material. Data from six individual experiments were evaluated independently with four replicates expressed as the mean±SEM percent [^3H]thy incorporation inhibition versus untreated control cells *P<0.05 and **P<0.01 vs. control.
The effects of SSTR selective agonists and antagonists on TT cell DNA synthesis were assessed by determining the rate of [^3H]thymidine ([^3H]thy) incorporation, as previously described (Davis L, et al., 1994 In: Basic methods in Molecular Biology, 2nd edition, Appleton & Lange, Norwalk, Conn., USA: 611-646, degli Uberti E C, et al., 1991 J Clin Endocrinol Metab 72: 1364-1371). TT cells were plated in 24-multiwell plates (10^5 cells/well) and incubated for 48 hours in a medium supplemented with 10% FBS in the presence of [^3H]thy (1.5 μCi/mL; 87 Ci/mmol) with or without each SS analogue at concentrations ranging from 10^−6 to 10^−9 M. Treatments were renewed by adding fresh analogues to the wells after the first 24 h of incubation, without removing the medium.
(§1) After incubation, the cells were washed three times with ice-cold PBS and twice with 10% ice-cold trichloroacetic acid (TCA). TCA-precipitated material was solubilized in 500 μL 0.2 mol/L sodium hydroxide and 0.1% SDS. Cell-associated radioactivity was then counted in a scintillation spectrometer. Results (counts per min per well) were obtained by determining the mean value of at least six experiments in quadruplicate. The viability of TT cells in control and treated cultures was evaluated by Trypan blue staining both after 24 and 48 hours, and the number of viable cells was always 85-95%.

[2] = tested on: human MTC cell line TT; test: TT cell proliferation ([…] 96 MTS assay, viable cell number); type: cell-based
Method: Cells were incubated in 96-well plates for 48 hours in a culture medium supplemented with SS analogues at various concentrations (10^−9, 10^−8, 10^−7, and 10^−6 M). Control wells were treated with vehicle solution. TT cell proliferation was measured as absorbance at […] of each well. Data from six individual experiments were evaluated independently with eight replicates expressed as the mean±SEM percent cell proliferation inhibition versus untreated control cells *P<0.05 and **P<0.01 vs. control.
(§2) Control wells were treated with vehicle solution. TT cell proliferation was measured as absorbance at […] of each well. Data from six individual experiments were evaluated independently with eight replicates expressed as the mean±SEM percent cell proliferation inhibition versus untreated control cells *P<0.05 and **P<0.01 vs. control.
as §2, with “solution and” for “solution.”
The effects of SSTR selective agonists and antagonists on TT cell proliferation were assessed by the […] […] The absorbance at 490 nm was then recorded using an ELISA plate reader (EASIA Reader, Medgenix, Camarillo, Calif.). […]

[3] = tested on: human MTC cell line TT; test: TT cell viability by Trypan Blue staining; type: cell-based
Method: as §1

[4] = target: human SSTR1 (Homo sapiens, UniProt P30872); test: Radioligand membrane receptor binding assay, SSTR1; conditions: CHO-K1 membranes, [125I-Tyr11]SS-14; read-out: Human somatostatin receptor subtype specificity, Ki, receptor subtype 1
[5] = target: T1, human SSTR2 (Homo sapiens, UniProt P30874); test: SSTR2 mediated intracellular calcium mobilization in CHO-K1 cells; type: cell-based; conditions: 10^-7-10^-6 M, FIG. 1
T1 construct: expressed in transfected cells
T1 sequence (P30874 whole entry): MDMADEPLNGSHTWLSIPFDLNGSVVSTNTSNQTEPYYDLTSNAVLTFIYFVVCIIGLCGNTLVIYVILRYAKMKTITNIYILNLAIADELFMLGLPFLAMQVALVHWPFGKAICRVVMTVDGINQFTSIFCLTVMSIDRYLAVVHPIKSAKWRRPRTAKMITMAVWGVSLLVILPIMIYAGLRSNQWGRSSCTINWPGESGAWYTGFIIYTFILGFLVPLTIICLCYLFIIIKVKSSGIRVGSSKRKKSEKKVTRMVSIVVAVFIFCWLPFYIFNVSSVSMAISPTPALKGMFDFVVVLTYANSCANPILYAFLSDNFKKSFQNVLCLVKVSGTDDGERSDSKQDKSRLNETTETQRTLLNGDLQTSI

Sequence of human SSTR1 (P30872 whole entry): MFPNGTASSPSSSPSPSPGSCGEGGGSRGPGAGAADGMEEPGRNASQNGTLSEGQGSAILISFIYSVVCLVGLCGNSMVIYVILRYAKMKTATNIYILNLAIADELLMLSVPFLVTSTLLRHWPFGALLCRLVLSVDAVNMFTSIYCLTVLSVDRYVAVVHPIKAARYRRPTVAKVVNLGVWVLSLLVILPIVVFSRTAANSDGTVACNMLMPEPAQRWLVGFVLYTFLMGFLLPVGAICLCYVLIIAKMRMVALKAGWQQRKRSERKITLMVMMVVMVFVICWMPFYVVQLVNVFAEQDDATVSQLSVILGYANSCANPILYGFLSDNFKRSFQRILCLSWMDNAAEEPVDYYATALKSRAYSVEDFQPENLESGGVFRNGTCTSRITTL

SMILES: C[C@@H](O)[C@H](NC(=O)[C@H](Cc1ccccc1)NC(=O)[C@@H](NC(=O)[C@H](CCCCN)NC(=O)[C@@H](Cc1c[nH]c2ccccc12)NC(=O)[C@H](Cc1c[nH]c2ccccc12)NC(=O)[C@H](Cc1ccccc1)NC(=O)[C@H](N)Cc1ccccc1)[C@@H](C)O)C(N)=O [Compound 5, D-Phe-Phe-Trp-D-Trp-Lys-Thr-Phe-Thr-NH2]
- Effect on suppression of TT cell [3H]thy incorporation produced by Compound 2 ([1]; 10^-9 M to 10^-6 M with Compound 2 10^-7 M, FIG. 8 upper panel): dose-dependently prevented
- Increase of [3H]thy incorporation ([1]; 10^-9 to 10^-6 M, 48 h): 80-175%
- Increase of TT cell proliferation ([2]; 10^-8 M, not statistically different from control): up to 11%
- Effect on suppression of TT cell proliferation produced by Compound 2 ([2]; 10^-9 M to 10^-6 M with Compound 2 10^-7 M, FIG. 8 lower panel): dose-dependently prevented

SMILES: CC(C)[C@@H]1NC(=O)[C@H](CCCCN)NC(=O)[C@@H](Cc2c[nH]c3ccccc23)NC(=O)[C@H](Cc2ccc(O)cc2)NC(=O)[C@@H](NC(=O)[C@H](N)Cc2ccc3ccccc3c2)CSSC[C@@H](C(=O)N[C@H](C(N)=O)[C@@H](C)O)NC1=O [Compound 1, D-Nal-cyclo[Cys-Tyr-D-Trp-Lys-Val-Cys]-Thr-NH2]
- Cytotoxic action by Trypan Blue staining ([3]; 10^-7 M): not associated with any cytotoxic action

SMILES: CC[C@@H]1NC(=O)[C@H](CCCCN)NC(=O)[C@@H](Cc2c[nH]c3ccccc23)NC(=O)[C@H](Cc2ccc(O)cc2)NC(=O)[C@@H](NC(=O)[C@@H](Cc2ccccc2)NS(=O)(=O)CCN2CCN(CCO)CC2)CSSC[C@@H](C(=O)N[C@H](C(N)=O)[C@@H](C)O)NC1=O [Compound 4, 4-(2-Hydroxyethyl)-1-piperazine-2-ethanesulfonyl-D-Phe-cyclo(Cys-Tyr-D-Trp-Lys-Abu-Cys)-Thr-NH2]
- Significant reduction of [3H]thy incorporation ([1]; 10^-8 M and 10^-7 M): not
- Significant reduction of [3H]thy incorporation ([1]; 10^-9 M): significantly (p<0.05) reduced
- Change of [3H]thy incorporation ([1]; 10^-9 M, 48 h): −13%

- Ki [4]: 5.21 µM
SMILES: CC[C@@H]1NC(=O)[C@H](CCCCN)NC(=O)[C@@H](Cc2c[nH]c3ccccc23)NC(=O)[C@H](Cc2ccc(O)cc2)NC(=O)[C@@H](NC(=O)[C@@H](Cc2ccccc2)NC(=O)CN2CCN(CCO)CC2)CSSC[C@@H](C(=O)N[C@H](C(N)=O)[C@@H](C)O)NC1=O [Compound 3, 4-(2-Hydroxyethyl)-1-piperazinylacetyl-D-Phe-cyclo(Cys-Tyr-D-Trp-Lys-Abu-Cys)-Thr-NH2]
- Significant reduction of [3H]thy incorporation ([1]; 10^-8 M and 10^-7 M): not
- Significant reduction of [3H]thy incorporation ([1]; 10^-9 M): significantly (p<0.05) reduced
- Change of [3H]thy incorporation ([1]; 10^-9 M, 48 h): −17%

SMILES: CC[C@@H]1NC(=O)[C@H](CCCCN)NC(=O)[C@@H](Cc2c[nH]c3ccccc23)NC(=O)[C@H](Cc2ccc(O)cc2)NC(=O)[C@@H]2Cc3ccccc3CN2C(=O)[C@H](Cc2ccccc2)NC1=O [Compound 2, cyclo[Tic-Tyr-D-Trp-Lys-Abu-Phe]] (cyclo([Tic]Y[dW]K[Abu]F))
- Intracellular Ca2+ mobilization (ratio stimulated/basal) in SSTR2 expressing cells [5]: stimulated significant intracellular Ca^2+ mobilization
- Cytotoxic action by Trypan Blue staining [3]: not associated with any cytotoxic action
